# Experimental data as given in patent US20100035755A1, “METHOD OF CONTROLLING WEEDS IN A TURF GRASS BY USING SULFONYLUREA COMPOUNDS” (Moghu Research Center Ltd., priority 2008, published 2010).
# Tests used:
# Perennial rye grass = test: Turf grass selectivity, greenhouse pot test; type: in vivo
# Excerpt: (§1) Turf mats of Zoysia grass, bentgrass, Kentucky bluegrass, or perennial rye grass known as cool season turfgrass or western grass were purchased and cut into a piece having 10 cm×20 cm size. Then, each piece was transplanted in a rectangular plastic pot (surface area of 300 cm^2) in which sandy loam and mixed top soil (Boo-Nong Top Soil No. 3, for horticultural use) are filled in 1:1 ratio. After the transplantation, the grasses were cut once a week to maintain the blade height at 0.5-1.0 cm and cultivated for one month in a green house of which temperature was kept at 25˜30° C. for daytime and 15˜25° C. for nighttime, respectively. Then, the ‘test chemical’ of the above Examples 1 and 2 or ‘control chemical’ was applied thereto in an amount of 400, 200, 100, 50, 25, 12, 6, 3 g ai/ha. As a “control chemical”, pyrazolsulfuron ethyl wettable agent (manufactured by Dongbu Fine Chemicals; herein after, referred to as ‘control chemical No. 1’) and flazasulfuron (manufactured by Dongbu HiTek; herein after, referred to as ‘control chemical No. 2’), both sulfonylurea herbicides for a turf grass, were used. Application was carried out by using a track sprayer (R&D Sprayer, USA) equipped with Teejet 8002 nozzle (Spraying Systems Co., USA), and the application amount was adjusted to 2,000 L/ha, which is a typical application amount for a golf course in Korea. Application solution was prepared by diluting the “test chemical” or the “control chemical” with tap water. […] The test was repeated three times in a random arrangement and the results are given in average value of each test (see Table 2 below).
# Zoysia japonica [1] = test: Turf grass selectivity, greenhouse pot test; type: in vivo; settings: for phytotoxicity (visual assessment 0-10): Zoysia japonica
# Excerpt: as §1
# Dandelion = test: Weed spectrum, greenhouse pot test; type: in vivo; settings: two weeks after application
# Kentucky bluegrass = test: Actual field condition test of Example 1 (golf course); type: in vivo, Poa pratensis; settings: twenty days after application
# Experimental: (§2) The test chemical of the Example 1 was applied to a turf grass field, in which Digitaria sanguinalis as a representative summer-time poaceae weed and Kyllinga brevifolia as a representative hard-to-control perennial cyperaceae weed are thriving predominantly, to evaluate weed control effect of the compound. The experiment was carried out from May to July, 2008 in the Dae-duk Research Park golf course (Doryong-dong, Yusong-gu, Daejon, South Korea). At the time of the chemical application, Digitaria sanguinalis was at about 4-leaf stage and Kyllinga brevifolia was at growth period.
# Digitaria sanguinalis = test: as above; type: in vivo; settings: for efficacy in actual field condition: Digitaria sanguinalis (about 4-leaf stage), twenty days after application
# Experimental: as §2
# Kyllinga brevifolia = test: as above; type: in vivo; settings: for efficacy in actual field condition: Kyllinga brevifolia (growth period), twenty days after application
# Experimental: as §2
# Zoysia japonica [2] = test: as above; type: in vivo; settings: twenty days after application
# Experimental: as §2
# [3] = system: every kind of turf grasses tested; test: Turf grass selectivity, text summary over all turf grasses; type: in vivo
# Excerpt: as §1
# Viola arvensis = test: Actual field condition test of Example 2 (turf grass field); type: in vivo; settings: 50 g ai/ha
# Experimental: The test chemical of the Example 2 was applied to a turf grass field, in which Viola arvensis as a representative hard-to-control perennial weed is thriving predominantly, to evaluate a weed control effect of the compound. The experiment was carried out from May to June, 2007 in the turf grass field within Korea Research Institute of Bioscience and Biotechnology (52, Ueun-dong, Yusong-gu, Daejon, South Korea). Fourteen days after the chemical application, the turf grass was cut once.
# cool season turfgrass = test: Turf grass selectivity, summary for cool season turfgrass; type: in vivo; settings: 25 g ai/ha or more
# Excerpt: Turf mats of Zoysia grass, bentgrass, Kentucky bluegrass, or perennial rye grass known as cool season turfgrass or western grass were purchased and cut into a piece having 10 cm×20 cm size. Then, each piece was transplanted in a rectangular plastic pot (surface area of 300 cm^2) in which sandy loam and mixed top soil (Boo-Nong Top Soil No. 3, for horticultural use) are filled in 1:1 ratio. After the transplantation, the grasses were cut once a week to maintain the blade height at 0.5-1.0 cm and cultivated for one month in a green house of which temperature was kept at 25˜30° C. for daytime and 15˜25° C. for nighttime, respectively. Then, the ‘test chemical’ of the above Examples 1 and 2 or ‘control chemical’ was applied thereto in an amount of 400, 200, 100, 50, 25, 12, 6, 3 g ai/ha. As a “control chemical”, pyrazolsulfuron ethyl wettable agent (manufactured by Dongbu Fine Chemicals; herein after, referred to as ‘control chemical No. 1’) and flazasulfuron (manufactured by Dongbu HiTek; herein after, referred to as ‘control chemical No. 2’), both sulfonylurea herbicides for a turf grass, were used. Application was carried out by using a track sprayer (R&D Sprayer, USA) equipped with Teejet 8002 nozzle (Spraying Systems Co., USA), and the application amount was adjusted to 2,000 L/ha, which is a typical application amount for a golf course in Korea. […]
smiles,measurement,setting,value
Cc1cc(C)nc(NC(=O)NS(=O)(=O)c2ccccc2C(O)C(C)F)n1 (stereo not shown) [Example 1],phytotoxicity (visual assessment 0-10),"Perennial rye grass; 3 g ai/ha, 2 weeks",0
same,phytotoxicity (visual assessment 0-10),"Perennial rye grass; 3 g ai/ha, 4 weeks",0
same,phytotoxicity (visual assessment 0-10),"Perennial rye grass; 6 g ai/ha, 2 weeks",0
same,phytotoxicity (visual assessment 0-10),"Perennial rye grass; 6 g ai/ha, 4 weeks",0
same,phytotoxicity (visual assessment 0-10),"Perennial rye grass; 12 g ai/ha, 2 weeks",0
same,phytotoxicity (visual assessment 0-10),"Perennial rye grass; 12 g ai/ha, 4 weeks",0
same,phytotoxicity (visual assessment 0-10),"Perennial rye grass; 25 g ai/ha, 2 weeks",0
same,phytotoxicity (visual assessment 0-10),"Perennial rye grass; 25 g ai/ha, 4 weeks",0
same,phytotoxicity (visual assessment 0-10),"Perennial rye grass; 50 g ai/ha, 2 weeks",0
same,phytotoxicity (visual assessment 0-10),"Perennial rye grass; 50 g ai/ha, 4 weeks",0
same,phytotoxicity (visual assessment 0-10),"Perennial rye grass; 100 g ai/ha, 2 weeks",0
same,phytotoxicity (visual assessment 0-10),"Perennial rye grass; 100 g ai/ha, 4 weeks",0
same,phytotoxicity (visual assessment 0-10),"Perennial rye grass; 200 g ai/ha, 2 weeks",0
same,phytotoxicity (visual assessment 0-10),"Perennial rye grass; 200 g ai/ha, 4 weeks",0
same,phytotoxicity (visual assessment 0-10),"Perennial rye grass; 400 g ai/ha, 2 weeks",1
same,phytotoxicity (visual assessment 0-10),"Perennial rye grass; 400 g ai/ha, 4 weeks",0
same,phytotoxicity (visual assessment 0-10),"Zoysia japonica [1]; 3 g ai/ha, 2 weeks",0
same,phytotoxicity (visual assessment 0-10),"Zoysia japonica [1]; 3 g ai/ha, 4 weeks",0
same,phytotoxicity (visual assessment 0-10),"Zoysia japonica [1]; 6 g ai/ha, 2 weeks",0
same,phytotoxicity (visual assessment 0-10),"Zoysia japonica [1]; 6 g ai/ha, 4 weeks",0
same,phytotoxicity (visual assessment 0-10),"Zoysia japonica [1]; 12 g ai/ha, 2 weeks",0
same,phytotoxicity (visual assessment 0-10),"Zoysia japonica [1]; 12 g ai/ha, 4 weeks",0
same,phytotoxicity (visual assessment 0-10),"Zoysia japonica [1]; 25 g ai/ha, 2 weeks",0
same,phytotoxicity (visual assessment 0-10),"Zoysia japonica [1]; 25 g ai/ha, 4 weeks",0
same,phytotoxicity (visual assessment 0-10),"Zoysia japonica [1]; 50 g ai/ha, 2 weeks",0
same,phytotoxicity (visual assessment 0-10),"Zoysia japonica [1]; 50 g ai/ha, 4 weeks",0
same,phytotoxicity (visual assessment 0-10),"Zoysia japonica [1]; 100 g ai/ha, 2 weeks",0
same,phytotoxicity (visual assessment 0-10),"Zoysia japonica [1]; 100 g ai/ha, 4 weeks",0
same,phytotoxicity (visual assessment 0-10),"Zoysia japonica [1]; 200 g ai/ha, 2 weeks",0
same,phytotoxicity (visual assessment 0-10),"Zoysia japonica [1]; 200 g ai/ha, 4 weeks",0
same,phytotoxicity (visual assessment 0-10),"Zoysia japonica [1]; 400 g ai/ha, 2 weeks",0
same,phytotoxicity (visual assessment 0-10),"Zoysia japonica [1]; 400 g ai/ha, 4 weeks",0
same,efficacy (0-100 scale),"Dandelion; Post-emergence, 12 g ai/ha",90
same,efficacy (0-100 scale),"Dandelion; Post-emergence, 25 g ai/ha",90
same,efficacy (0-100 scale),"Dandelion; Post-emergence, 50 g ai/ha",100
same,efficacy (0-100 scale),"Dandelion; Post-emergence, 100 g ai/ha",100
same,efficacy (0-100 scale),"Dandelion; Pre-emergence, 12 g ai/ha",90
same,efficacy (0-100 scale),"Dandelion; Pre-emergence, 25 g ai/ha",90
same,efficacy (0-100 scale),"Dandelion; Pre-emergence, 50 g ai/ha",100
same,efficacy (0-100 scale),"Dandelion; Pre-emergence, 100 g ai/ha",100
same,phytotoxicity in actual field condition,Kentucky bluegrass; 50 g ai/ha,0
same,phytotoxicity in actual field condition,Kentucky bluegrass; 100 g ai/ha,0
same,efficacy in actual field condition,Digitaria sanguinalis; 50 g ai/ha,80
same,efficacy in actual field condition,Digitaria sanguinalis; 100 g ai/ha,90
same,efficacy in actual field condition,Digitaria sanguinalis; 200 g ai/ha,100
same,weed controlled in actual field,"Digitaria sanguinalis; Digitaria sanguinalis, 50 g ai/ha or more",80%
same,efficacy in actual field condition,Kyllinga brevifolia; 50 g ai/ha,100
same,efficacy in actual field condition,Kyllinga brevifolia; 100 g ai/ha,100
same,efficacy in actual field condition,Kyllinga brevifolia; 200 g ai/ha,100
same,weed controlled in actual field,"Kyllinga brevifolia; Kyllinga brevifolia, 50 g ai/ha or more",100%
same,phytotoxicity in actual field condition,Zoysia japonica [2]; 50 g ai/ha,0
same,phytotoxicity in actual field condition,Zoysia japonica [2]; 100 g ai/ha,0
same,phytotoxicity to a turf grass,[3]; 100 g ai/ha,no phytotoxicity at all
same,phytotoxicity to a turf grass,[3]; 400 g ai/ha,only minor phytotoxicity
same,phytotoxicity to turf grasses,[3]; 400 or 200 g ai/ha,only minor phytotoxicity
same,safety to turf grasses,"[3]; every kind of turf grasses tested, 100 g ai/ha or less",excellent safety
"COc1nc(C)nc(NC(=O)NS(=O)(=O)c2cscc2C2(CF)OCCO2)n1 [Example 2, 3-(2-fluoromethyl-1,3-dioxalan-2-yl)-N-[(4-methoxy-6-methyltriazin-2-yl)aminocarbonyl]4-thiophene sulfonamide]",phytotoxicity (visual assessment 0-10),"Perennial rye grass; 3 g ai/ha, 2 weeks",3
same,phytotoxicity (visual assessment 0-10),"Perennial rye grass; 3 g ai/ha, 4 weeks",1
same,phytotoxicity (visual assessment 0-10),"Perennial rye grass; 6 g ai/ha, 2 weeks",5
same,phytotoxicity (visual assessment 0-10),"Perennial rye grass; 6 g ai/ha, 4 weeks",3
same,phytotoxicity (visual assessment 0-10),"Perennial rye grass; 12 g ai/ha, 2 weeks",7
same,phytotoxicity (visual assessment 0-10),"Perennial rye grass; 12 g ai/ha, 4 weeks",5
same,phytotoxicity (visual assessment 0-10),"Perennial rye grass; 25 g ai/ha, 2 weeks",10
same,phytotoxicity (visual assessment 0-10),"Perennial rye grass; 25 g ai/ha, 4 weeks",10
same,phytotoxicity (visual assessment 0-10),"Perennial rye grass; 50 g ai/ha, 2 weeks",10
same,phytotoxicity (visual assessment 0-10),"Perennial rye grass; 50 g ai/ha, 4 weeks",10
same,phytotoxicity (visual assessment 0-10),"Perennial rye grass; 100 g ai/ha, 2 weeks",10
same,phytotoxicity (visual assessment 0-10),"Perennial rye grass; 100 g ai/ha, 4 weeks",10
same,phytotoxicity (visual assessment 0-10),"Perennial rye grass; 200 g ai/ha, 2 weeks",10
same,phytotoxicity (visual assessment 0-10),"Perennial rye grass; 200 g ai/ha, 4 weeks",10
same,phytotoxicity (visual assessment 0-10),"Perennial rye grass; 400 g ai/ha, 2 weeks",10
same,phytotoxicity (visual assessment 0-10),"Perennial rye grass; 400 g ai/ha, 4 weeks",10
same,safety to Zoysia japonica,Zoysia japonica [1]; 100 g ai/ha or less,high safety
same,phytotoxicity (visual assessment 0-10),"Zoysia japonica [1]; 3 g ai/ha, 2 weeks",0
same,phytotoxicity (visual assessment 0-10),"Zoysia japonica [1]; 3 g ai/ha, 4 weeks",0
same,phytotoxicity (visual assessment 0-10),"Zoysia japonica [1]; 6 g ai/ha, 2 weeks",0
same,phytotoxicity (visual assessment 0-10),"Zoysia japonica [1]; 6 g ai/ha, 4 weeks",0
same,phytotoxicity (visual assessment 0-10),"Zoysia japonica [1]; 12 g ai/ha, 2 weeks",0
same,phytotoxicity (visual assessment 0-10),"Zoysia japonica [1]; 12 g ai/ha, 4 weeks",0
same,phytotoxicity (visual assessment 0-10),"Zoysia japonica [1]; 25 g ai/ha, 2 weeks",0
same,phytotoxicity (visual assessment 0-10),"Zoysia japonica [1]; 25 g ai/ha, 4 weeks",0
same,phytotoxicity (visual assessment 0-10),"Zoysia japonica [1]; 50 g ai/ha, 2 weeks",0
same,phytotoxicity (visual assessment 0-10),"Zoysia japonica [1]; 50 g ai/ha, 4 weeks",0
same,phytotoxicity (visual assessment 0-10),"Zoysia japonica [1]; 100 g ai/ha, 2 weeks",1
same,phytotoxicity (visual assessment 0-10),"Zoysia japonica [1]; 100 g ai/ha, 4 weeks",0
same,phytotoxicity (visual assessment 0-10),"Zoysia japonica [1]; 200 g ai/ha, 2 weeks",2
same,phytotoxicity (visual assessment 0-10),"Zoysia japonica [1]; 200 g ai/ha, 4 weeks",1
same,phytotoxicity (visual assessment 0-10),"Zoysia japonica [1]; 400 g ai/ha, 2 weeks",4
same,phytotoxicity (visual assessment 0-10),"Zoysia japonica [1]; 400 g ai/ha, 4 weeks",3
same,efficacy (0-100 scale),"Dandelion; Post-emergence, 12 g ai/ha",90
same,efficacy (0-100 scale),"Dandelion; Post-emergence, 25 g ai/ha",90
same,efficacy (0-100 scale),"Dandelion; Post-emergence, 50 g ai/ha",100
same,efficacy (0-100 scale),"Dandelion; Post-emergence, 100 g ai/ha",100
same,efficacy (0-100 scale),"Dandelion; Pre-emergence, 12 g ai/ha",90
same,efficacy (0-100 scale),"Dandelion; Pre-emergence, 25 g ai/ha",90
same,efficacy (0-100 scale),"Dandelion; Pre-emergence, 50 g ai/ha",100
same,efficacy (0-100 scale),"Dandelion; Pre-emergence, 100 g ai/ha",100
same,Effect on Viola arvensis,Viola arvensis; After 7 days,20
same,Effect on Viola arvensis,Viola arvensis; After 14 days,50
same,phytotoxicity to cool season turfgrass,cool season turfgrass,completely withered
